According to patent US11266640B2, “Polycyclic compound acting as IDO inhibitor and/or IDO-HDAC dual inhibitor” (Hangzhou Innogate Pharma Co., Ltd., priority 2017, dated 2022):

Assays:
hIDO1 = target: T1, hIDO1 (Homo sapiens, UniProt P14902); experiment: IDO inhibition activity based on HEK293T cells transfected with hIDO1 plasmid; type: cell-based; settings: HEK293T cells transfected with hIDO1, 16 hours incubation, OD 480 nm; read-out: IDO inhibitory activity of HEK293T cells (IC50)
T1 construct: expressed in transfected cells; host or cells: HEK293T (293T) cells, transient transfection with Fugene 6
T1 sequence (P14902 whole entry): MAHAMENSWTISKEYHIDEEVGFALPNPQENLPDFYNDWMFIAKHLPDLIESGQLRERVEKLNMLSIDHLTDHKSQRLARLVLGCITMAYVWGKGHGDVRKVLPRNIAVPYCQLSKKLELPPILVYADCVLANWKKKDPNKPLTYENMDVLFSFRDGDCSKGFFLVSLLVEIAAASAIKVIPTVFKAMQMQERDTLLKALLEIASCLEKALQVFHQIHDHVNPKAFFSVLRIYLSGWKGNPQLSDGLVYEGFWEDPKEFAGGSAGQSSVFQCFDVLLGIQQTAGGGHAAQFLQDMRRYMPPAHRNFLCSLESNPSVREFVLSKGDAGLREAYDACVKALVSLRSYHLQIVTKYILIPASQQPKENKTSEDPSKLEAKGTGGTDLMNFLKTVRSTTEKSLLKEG
Protocol: 1. Test Method for IDO Inhibition Activity Based on HEK293T Cells:
The first step: cell transfection and plating. 5×10^6 293T cells were separately seeded in two T75 flasks and incubated overnight at 37° C. in a 5% CO2 incubator. […] of a mixture containing 1.5 μg of hIDO1 plasmid and 300 μL of opti-MEM was made into a mixture A; 18 μL of liposome fugene 6 was mixed with 300 μL of opti-MEM to prepare a mixture B, and allowed to stand at room temperature for 5 minutes. Mixture A and Mix B were mixed, placed at room temperature for 20 minutes, added to a 293T culture flask, and the other flask was used as a control and incubated overnight at 37° C. in a 5% CO2 incubator. The medium was discarded, digested with trypsin, and after digestion, the cells were neutralized with serum-containing medium, and the cells were blown to cause the cells to fall off. Pipette the cell suspension into a centrifuge tube and centrifuge at a speed of 800-1000 for 1-3 minutes. Aspirate the cell supernatant from the centrifuge tube. Add an appropriate volume of medium to the tube and gently blister to resuspend the cells. Count using a Vi-Cell XR cytometer. Adjust the cell suspension to the appropriate concentration. The cell suspension was added to a white-well 96-well plate at 80 μL/well. The second step: preparation and addition of the compound. Compounds were formulated in DMSO at 600 μM and the compounds were diluted in DMSO according to a multiple of the following table to give 6 concentration gradients of the compound. The 200× compound prepared in DMSO was formulated into a 10× dilution solution in proportion to the corresponding cell culture medium. Add 10 μL of 10× corresponding compound dilution and 10 μL of 10×TRP to each well, except for Min. Incubate for 16 hours in a 37° C. incubator. The third step: detection and analysis. Cell morphology was observed under an inverted microscope. 80 μL of the supernatant was added to a 3894 plate, and 10 μL of 6.1 N trichloroacetic acid was added to each well, shaken for 2 minutes, and placed in a 50-degree incubator for 30 minutes. Centrifuged at 2500 rpm for 10 minutes. Take 70 μL of the supernatant and transfer to a 3635 UV plate, add 70 μL of the reaction solution, and shake for 2 minutes to make the reaction uniform. Use EnSpire (PE) to detect data with an OD of 480 nm. The cell culture plate 3903 was allowed to stand at room temperature for 30 minutes. 100 μL/well of the cell activity detecting reagent was added to the culture plate. Mix on a shaker for 2 minutes to induce cell lysis. The 96-well plate was allowed to stand at room temperature for 10 minutes to stabilize the luminescence signal. Paste the white base film on the bottom of the plate and the plate was tested in Flexstation 3 (the relevant setting is: Illumination, integration time 500 ms). Record the experimental results obtained from the analysis.
The IC50 value is expressed by: A: IC50 value≤10 nM; B: 10 nM<IC50 value≤50 nM; C: 50 nM<IC50 value≤100 nM; D: IC50 value>100 nM.

IDO = target: T2, IDO (Homo sapiens, UniProt P14902); experiment: Hela cell-based IDO inhibitory activity test (IFNγ added); settings: Hela cells with IFNγ, 48 hours incubation, OD 480 nm
T2 construct: endogenous in cells; host or cells: HeLa cells treated with IFNγ
T2 sequence (P14902 whole entry): as above
Protocol: 2. Hela Cell-Based IDO Inhibitory Activity Test Method
The first step: cell plating. Prepare complete medium and mix well. Cell lines that are in good growth state are selected. Remove the cell culture flask from the incubator and check the cell name, media type and cell generation number on the bottle. The medium was discarded, digested with trypsin, and after digestion, the cells were neutralized with serum-containing medium, and the cells were blown to cause the cells to fall off. Pipette the cell suspension into a centrifuge tube and centrifuge at a speed of 800-1000 for 3-5 minutes. Aspirate the cell supernatant from the centrifuge tube. Add an appropriate volume of medium to the tube and gently blister to resuspend the cells. Count using a Vi-Cell XR cytometer. Adjust the cell suspension to the appropriate concentration. The cell suspension was added to a white-well 96-well plate at 80 μl/well according to the schematic below. The second step: preparation and addition of the compound. Compounds were formulated in DMSO at 600 μM and the compounds were diluted in DMSO according to a multiple of the following table to give 6 concentration gradients of the compound. The 200× compound prepared in DMSO was formulated into a 10× dilution solution in proportion to the corresponding cell culture medium. After 24 hours of cell seeding, 10 μL of 10× corresponding compound dilution and 10 μL of 10×IFNγ were added to each well. Incubate for 48 hours in a 37° C. incubator. The third step: detection and analysis. Cell morphology was observed under an inverted microscope. 80 μL of the supernatant was added to a 3894 plate, 10 μL of 6.1 N trichloroacetic acid was added to each well, shaken for 2 minutes, and placed in a 50-degree incubator for 30 minutes. Centrifuge, 2500 rpm for 10 minutes.
Take 70 μL of the supernatant and transfer to a 3635 UV plate, add 70 μL of the reaction solution, and shake for 2 minutes to make the reaction uniform. Use EnSpire (PE) to detect data with an OD of 480 nm. The cell culture plate 3903 was allowed to stand at room temperature for 30 minutes. 100 μL/well of the cell activity detecting reagent was added to the culture plate. Mix on a shaker for 2 minutes to induce cell lysis. The 96-well plate was allowed to stand at room temperature for 10 minutes to stabilize the luminescence signal. Paste the white base film on the bottom of the plate and tested with Flexstation3 plate (the relevant setting is: Illumination, integration time 500 ms). Record the experimental results obtained from the analysis.
The IC50 value is expressed in the following manner: […]

IC50 (hIDO1) | IC50 (IDO) | Compound
10 to 50 nM | ≤ 5 nM | O=C(C[C@@H]1C[C@@H]2CC(c3ccnc4ccc(F)cc34)=C[C@@H]2C1)Nc1ccc(Cl)cc1 [Compound 11]
≤ 10 nM | ≤ 5 nM | CC(C(=O)Nc1ccc(Cl)cc1)[C@H]1C[C@H]2C[C@@H](c3ccnc4ccc(F)cc34)C[C@H]2C1 (mixture of isomers) [Compound 1]
≤ 10 nM | ≤ 5 nM | O=C(Nc1ccc(Cl)cn1)C1([C@H]2C[C@H]3C[C@@H](c4ccnc5ccc(F)cc45)C[C@H]3C2)CC1 [Compound 95]
≤ 10 nM | ≤ 5 nM | O=C(C[C@H]1C[C@@H]2C[C@H](c3ccnc4ccc(F)cc34)C[C@@H]2C1)Nc1ccc(Cl)cc1 [Compound 5]
10 to 50 nM | ≤ 5 nM | O=C(CC1=C[C@H]2C[C@@H](c3ccnc4ccc(F)cc34)C[C@H]2C1)Nc1ccc(Cl)cc1 (racemic) [Compound 57]
10 to 50 nM | ≤ 5 nM | CC(C(=O)Nc1ccc(Cl)cc1)[C@@H]1C[C@H]2C[C@@H](c3ccnc4ccc(F)cc34)C[C@H]2C1 (some centres unmarked) [Compound 4]
10 to 50 nM | 5 to 25 nM | O=C(C[C@@H]1C[C@H]2CC(c3ccnc4ccc(F)cc34)C[C@H]2C1)Nc1ccc(Cl)nc1 (some centres unmarked) [Compound 22]
≤ 10 nM | ≤ 5 nM | C[C@@H](C(=O)Nc1ccc(Cl)cc1)[C@H]1C[C@H]2C[C@@H](c3ccnc4ccc(F)cc34)C[C@H]2C1 (single isomer, unassigned) [Compound 1A]
> 100 nM | 25 to 100 nM | O=C(C[C@@H]1C[C@@H]2C[C@H](c3ccnc4ccc(F)cc34)C[C@@H]2C1)NC1CCC(F)(F)CC1 [Compound 12]
≤ 10 nM | 5 to 25 nM | CC(C)(C(=O)Nc1ccc(Cl)nc1)[C@H]1C[C@H]2C[C@@H](c3ccnc4ccc(F)cc34)C[C@H]2C1 [Compound 85]
> 100 nM | > 100 nM | CC(C(=O)Nc1ccc(Cl)cc1)[C@@H]1C[C@@H]2CN(c3ccnc4ccc(F)cc34)C[C@@H]2C1 (some centres unmarked) [Compound 9]
– | ≤ 5 nM | CC(C(=O)Nc1ccc(C#CC(C)(C)O)cn1)[C@H]1C[C@H]2C[C@@H](c3ccnc4ccc(F)cc34)C[C@H]2C1 (some centres unmarked) [Compound 77]
– | ≤ 5 nM | CC(C(=O)Nc1ccc(I)cn1)C1C[C@H]2CC(c3ccnc4ccc(F)cc34)C[C@H]2C1 (some centres unmarked) [Compound 76]
– | ≤ 5 nM | C[C@@H](C(=O)Nc1ccc(Cl)cn1)[C@H]1C[C@H]2CC(c3ccnc4ccc(F)cc34)C[C@H]2C1 (single isomer, unassigned) [Compound 26A]
– | > 100 nM | O=C(C[C@@H]1C[C@@H]2C[C@@H](N3CCCc4ccccc43)C[C@@H]2C1)Nc1ccc(Cl)cc1 [Compound 52]
– | 5 to 25 nM | O=C(C[C@]1(O)C[C@H]2C[C@@H](c3ccnc4ccc(F)cc34)C[C@H]2C1)Nc1ccc(Cl)cc1 [Compound 58]
– | ≤ 5 nM | C#Cc1ccc(NC(=O)C[C@H]2C[C@H]3CC(c4ccnc5ccc(F)cc45)C[C@H]3C2)cc1 (some centres unmarked) [Compound 19]
– | ≤ 5 nM | C#Cc1ccc(NC(=O)C[C@@H]2C[C@@H]3CC(c4ccnc5ccc(F)cc45)=C[C@@H]3C2)nc1 [Compound 63]
– | ≤ 5 nM | CC#Cc1ccc(NC(=O)C(C)(C)[C@H]2C[C@H]3C[C@@H](c4ccnc5ccc(F)cc45)C[C@H]3C2)cn1 [Compound 91]

The remaining lines, values behind:

Compound | IC50 (hIDO1) | IC50 (IDO)
CC#Cc1ccc(NC(=O)C(C)(C)[C@H]2C[C@H]3C[C@@H](c4ccnc5ccc(F)cc45)C[C@H]3C2)nc1 [Compound 90] | ≤ 10 nM | ≤ 5 nM
C#Cc1ccc(NC(=O)C2([C@@H]3C[C@H]4C[C@@H](c5ccnc6ccc(F)cc56)C[C@H]4C3)CC2)cn1 [Compound 93] | ≤ 10 nM | ≤ 5 nM
O=C(Cc1ccc(CC(C(=O)Nc2ccc(Cl)cc2)[C@H]2CC[C@@H](c3ccnc4ccc(F)cc43)CC2)cc1)NO (some centres unmarked) [Compound 10] | > 100 nM | > 100 nM
C#Cc1ccc(NC(=O)C2([C@H]3C[C@H]4C[C@@H](c5ccnc6ccc(F)cc56)C[C@H]4C3)CC2)nc1 [Compound 96] | ≤ 10 nM | ≤ 5 nM
CC(C(=O)Nc1ccc(Cl)cn1)[C@H]1C[C@H]2CC(c3ccnc4ccc(F)cc34)C[C@H]2C1 (mixture of isomers) [Compound 26] | 10 to 50 nM | ≤ 5 nM
C#Cc1ccc(NC(=O)C(C)(C)[C@H]2C[C@H]3C[C@@H](c4ccnc5ccc(F)cc45)C[C@H]3C2)nc1 [Compound 86] | ≤ 10 nM | ≤ 5 nM
CC(C(=O)Nc1ccc(C#N)cn1)[C@H]1C[C@H]2C[C@@H](c3ccnc4ccc(F)cc34)C[C@H]2C1 (some centres unmarked) [Compound 73] | ≤ 10 nM | ≤ 5 nM
C[C@H](C(=O)Nc1ccc(Cl)cc1)[C@H]1C[C@H]2C[C@@H](c3ccnc4ccc(F)cc34)C[C@H]2C1 (single isomer, unassigned) [Compound 1B] | ≤ 10 nM | ≤ 5 nM
COc1ccc(NC(=O)C(C)[C@H]2C[C@H]3C[C@@H](c4ccnc5ccc(F)cc45)C[C@H]3C2)cn1 (some centres unmarked) [Compound 6] | 10 to 50 nM | 5 to 25 nM
CC(C(=O)Nc1ccc(Cl)nc1)C1=C[C@H]2C[C@@H](c3ccnc4ccc(F)cc34)C[C@H]2C1 (some centres unmarked) [Compound 39] | – | ≤ 5 nM
CC(C(=O)Nc1ccc(Cl)cc1)N1C[C@H]2C[C@@H](c3ccnc4ccc(F)cc34)C[C@H]2C1 (some centres unmarked) [Compound 44] | – | ≤ 5 nM
CC(C(=O)Nc1ccc(C#CC(C)(C)O)cn1)[C@@H]1C[C@H]2C[C@@H](c3ccnc4ccc(F)cc34)C[C@H]2C1 (some centres unmarked) [Compound 78] | – | 25 to 100 nM
C#Cc1ccc(NC(=O)C[C@@H]2C[C@@H]3CC(c4ccnc5ccc(F)cc45)=C[C@@H]3C2)cn1 [Compound 64] | – | ≤ 5 nM
CC(C)(C(=O)Nc1ccc(Cl)cc1)[C@H]1C[C@H]2C[C@@H](c3ccnc4ccc(F)cc34)C[C@H]2C1 [Compound 60] | – | ≤ 5 nM
C#Cc1ccc(NC(=O)C[C@@H]2C[C@H]3CC(c4ccnc5ccc(F)cc45)C[C@H]3C2)cn1 (some centres unmarked) [Compound 24] | – | ≤ 5 nM
CC#Cc1ccc(NC(=O)C(C)[C@H]2C[C@H]3C[C@@H](c4ccnc5ccc(F)cc45)C[C@H]3C2)cn1 (some centres unmarked) [Compound 83] | – | > 100 nM
C#Cc1ccc(NC(=O)C2([C@H]3C[C@H]4C[C@@H](c5ccnc6ccc(F)cc56)C[C@H]4C3)CC2)cn1 [Compound 97] | – | 5 to 25 nM
